Laboratory results taken from patent publication USRE40033E1, “Process for preparing 2-methyl-thieno-benzodiazepine” (Eli Lilly and Company, priority 1991, dated 2008).

Experiments:
mice [1] = assay: Apomorphine-induced hypothermia; assay type: in vivo
[2] = Studies using radiolabelled compound, saliva residues; assay type: in vivo
Method: For example, in the treatment of adult humans, dosages of from 0.25 to 30 mg, preferably from 1 to 20 mg, per day may be used. A once a day dosage is normally sufficient, although divided doses may be administered. For treatment of psychotic disorders a dose range of from 1 to 20 mg, preferably 2.5 to 15 mg per day is suitable, whereas for mild anxiety states a lower dosage range, such as from 0.25 to 5 mg, preferably 1 to 5 mg, may be more appropriate. In choosing a suitable regimen for patients suffering from psychotic illness it may frequently be necessary to begin with a dosage of from 1 to 20 mg per day and when the illness is under control to reduce to a dosage as low as 1 mg per day.

dogs = assay: Dog toxicity studies, cholesterol levels; assay type: in vivo; settings: dosage of 8 mg/kg stated for the 2-ethyl compound
rats [3] = assay: Conditioned avoidance response; assay type: in vivo; settings: Rattus norvegicus, read-out: ED50, inhibition of conditioned avoidance response
patients [4] = settings: compared with flumezapine
D-1 and D-2 receptors = assay: Prevention of EEDQ disruption of the apomorphine-induced climbing response; assay type: in vivo; settings: 24 hour pretreatment with EEDQ
mice [5] = assay: Apomorphine-induced climbing behaviour; assay type: in vivo
5-HT-1C receptor = target: T1, 5-HT-1C receptor (Homo sapiens, UniProt P28335); assay: Activity at the 5-HT-1C receptor; assay type: binding
T1 sequence (P28335 33-458): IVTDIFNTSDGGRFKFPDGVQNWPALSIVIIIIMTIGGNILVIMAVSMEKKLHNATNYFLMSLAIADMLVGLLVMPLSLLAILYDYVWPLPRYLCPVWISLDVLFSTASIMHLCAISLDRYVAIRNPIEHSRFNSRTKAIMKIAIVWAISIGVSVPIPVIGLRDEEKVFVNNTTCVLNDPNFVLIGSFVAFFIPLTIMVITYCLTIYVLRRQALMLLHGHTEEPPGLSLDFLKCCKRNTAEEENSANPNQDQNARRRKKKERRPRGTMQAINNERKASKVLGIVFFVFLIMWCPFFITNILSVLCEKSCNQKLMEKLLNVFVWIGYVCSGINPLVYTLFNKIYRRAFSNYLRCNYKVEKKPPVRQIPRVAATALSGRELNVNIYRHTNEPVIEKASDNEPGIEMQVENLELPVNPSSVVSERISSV

[6] = system: noradrenergic α-receptors; assay: Pharmacological tests, noradrenergic α-receptors
Excerpt: These properties indicate that the compound is a potential neuroleptic with relaxant, anxiolytic and anti-emetic properties, and may be useful in treating psychotic conditions such as, but not limited to, schizophrenia, schizophreniform diseases and mania. At lower doses the compound is indicated for use in the treatment of mild anxiety states.

rats [7] = assay: Multiple conflict schedule (Geller and Seifter); assay type: in vivo; settings: dosed orally 60 minutes before testing
Excerpt: Moore, Nicholas A. et al., The Journal of Pharmacology and Experimental Therapeutics. 545-551, 262:2 (1992). The test measures characteristic changes in rates of responding associated with anxiolytic agents. The conflict procedure results are indicative of favorable anxiolytic activity.
The conflict procedure used was based on the method of Geller and Seifter, Psychopharmacologia 1: 482-492, (1960). Rats were trained on a multiple schedule consisting of three components. Individual components were as follows: 1) for 9 minutes, lever pressing was reinforced on a variable interval 30 second schedule (VI 30, reward). This period was signaled by illumination of the houselight alone. 2) During the following 3-minute period, lever presses were recorded but had no programmed consequence (time-out). 3) Lever pressing was reinforced according to a fixed ratio 10 second food presentation (FR10) for 3 minutes; however, each reinforced response was accompanied by an electric current (0.5 mA) being applied to the grid floor for 500 msec (conflict). This component was signaled by illumination of the houselight and three cue lights on the front panel. This sequence of three components (reward/time-out/conflict) was presented twice in the same order during the daily 30 minute session.
After the training procedure, drug testing was initiated. […]

[8] = system: psychiatric patients suffering from schizophrenia; assay: Clinical trial of flumezapine in psychiatric patients suffering from schizophrenia; assay type: in vivo, human
Excerpt: The lead compound from this group, flumezapine, (7-fluoro-2-methyl-10-(4-methyl-1-piperazinyl)-4H-thieno[2,3-b][1,5]-benzodiazepine), was developed to the stage of being clinically administered to psychiatric patients suffering from schizophrenia. A total of 17 patients received treatment with flumezapine before the clinical trial was terminated after consultation with the U.S. Food and Drug Administration, because of an unacceptably high incidence of raised enzyme levels in the treated patients. […] In respect of its tendency to raise liver enzyme levels, flumezapine is similar to chlorpromazine, an antipsychotic which has long been in use but whose safety has been called into question.

patients [9] = settings: cited from earlier work

For `Cc1cc2c(s1)Nc1ccccc1N=C2N1CCN(C)CC1`, the “dose antagonizing apomorphine-induced hypothermia” value (mice [1]) was “less than 10 mg/kg”, the residues in saliva [2] was “residues have been detected in the saliva” and the “rise in cholesterol levels” value (dogs) was “did not show any rise in cholesterol levels”. The ED50 (rats [3]) was 4 to 7 mg/kg, the “plasma levels of creatinine phosphokinase (CPK)” value (patients [4]) was “lower than with flumezapine” and the “active dose, prevention of disruption of climbing response by EEDQ” value (D-1 and D-2 receptors) was “less than 10 mg/kg”. For the same compound, the “dose antagonizing apomorphine-induced climbing behaviour” value (mice [5]) was “less than 10 mg/kg”, the “activity at the 5-HT-1C receptor” value (5-HT-1C receptor) was “active” and the “activity at noradrenergic α-receptors” value [6] was “antagonist activity”. For the same compound, the “active dose in multiple conflict schedule” value (rats [7]) was “less than 5 mg/kg”.
In the case of `Cc1cc2c(s1)Nc1ccc(F)cc1N=C2N1CCN(C)CC1` [flumezapine, 7-fluoro-2-methyl-10-(4-methyl-1-piperazinyl)-4H-thieno[2,3-b][1,5]-benzodiazepine], the “enzyme levels CPK, SGOT and SGPT in blood samples” value ([8]; 17 patients treated, trial terminated) is reported as “in substantial excess of normal values” and the “emergence of extrapyramidal side effects as measured on the AIMS scale” value ([8]; clinical trials) is reported as “two of the patients showed the emergence of extrapyramidal side effects”.
In the case of `CCc1cc2c(s1)Nc1ccccc1N=C2N1CCN(C)CC1` [2-ethyl-4-(4-methyl-1-piperazinyl)-10H-thieno[2,3-b][1,5]benzodiazepine, reference compound], the “rise in cholesterol levels” value (dogs) is reported as “four out of eight dogs showed a significant rise in cholesterol levels”.
For `CN1CCN(C2=Nc3cc(Cl)ccc3Nc3ccccc32)CC1` [clozapine], the “reported clinical side effects” value (patients [9]) is listed as “cause agranulocytosis in some patients”.
In the case of `O=C(CCCN1CCC(O)(c2ccc(Cl)cc2)CC1)c1ccc(F)cc1` [haloperidol], the “reported clinical side effects” value (patients [9]) is listed as “high incidence of extrapyramidal symptoms”.
